Publication PMC5655141, “Allosteric fine-tuning of the conformational equilibrium poises the chaperone BiP for post-translational regulation” (eLife, 2017)

Assays:
Experiment in all cases: ITC
Assay type in all cases: binding
[1] = biological target: T1, BiP* FL (full-length T229G BiP, BiP(1-641)) (Cricetulus griseus, UniProt G3I8R9, T229G/V461F)
T1 construct: gene HSPA5; full-length two-domain BiP, residues 1-641 as printed, non-cleavable N-terminal 6xHis tag, pET28a, E. coli BL21(DE3); ATPase-deficient T229G; non-AMPylated
Excerpt: ITC on BiP* FL (full-length T229G BiP, BiP(1-641)) | ATP and ADP binding obtained from ITC experiments for FL BiP*

[2] = biological target: T2, BiP* FL (full-length T229G BiP, BiP(1-641)) (Cricetulus griseus, UniProt G3I8R9, T229G)
T2 construct: gene HSPA5; full-length two-domain BiP, residues 1-641 as printed, non-cleavable N-terminal 6xHis tag, pET28a, E. coli BL21(DE3); ATPase-deficient T229G; non-AMPylated
Excerpt: ITC on BiP* FL (full-length T229G BiP, BiP(1-641))

AMPylated BiP* FL = biological target: T3, AMPylated BiP* FL (Cricetulus griseus, UniProt G3I8R9, T229G/V461F)
T3 construct: gene HSPA5; T229G
Excerpt: ITC on AMPylated BiP* FL | nucleotide (ATP or ADP) binding to non-AMPylated and AMPylated V461F BiP* measured by ITC

BiP* NBD(1-413) = biological target: T4, BiP* NBD(1-413) (Cricetulus griseus, UniProt G3I8R9, T229G)
T4 construct: gene HSPA5; T229G

BiP* NBD(1-417) = biological target: T5, BiP* NBD(1-417) (Cricetulus griseus, UniProt G3I8R9, T229G)
T5 construct: gene HSPA5; T229G
T5 sequence (G3I8R9 1-417 T229G): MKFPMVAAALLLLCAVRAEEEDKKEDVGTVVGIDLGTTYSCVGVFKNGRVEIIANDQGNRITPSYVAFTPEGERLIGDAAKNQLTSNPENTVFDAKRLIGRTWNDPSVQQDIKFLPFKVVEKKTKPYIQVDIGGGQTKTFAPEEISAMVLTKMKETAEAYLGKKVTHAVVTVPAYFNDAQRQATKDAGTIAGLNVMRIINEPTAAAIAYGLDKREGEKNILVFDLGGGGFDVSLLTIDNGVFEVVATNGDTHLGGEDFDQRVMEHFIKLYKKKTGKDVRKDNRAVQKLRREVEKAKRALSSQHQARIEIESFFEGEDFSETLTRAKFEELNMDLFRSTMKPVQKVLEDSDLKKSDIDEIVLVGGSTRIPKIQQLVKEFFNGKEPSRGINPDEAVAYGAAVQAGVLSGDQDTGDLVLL

T1 sequence (G3I8R9 1-641 T229G/V461F): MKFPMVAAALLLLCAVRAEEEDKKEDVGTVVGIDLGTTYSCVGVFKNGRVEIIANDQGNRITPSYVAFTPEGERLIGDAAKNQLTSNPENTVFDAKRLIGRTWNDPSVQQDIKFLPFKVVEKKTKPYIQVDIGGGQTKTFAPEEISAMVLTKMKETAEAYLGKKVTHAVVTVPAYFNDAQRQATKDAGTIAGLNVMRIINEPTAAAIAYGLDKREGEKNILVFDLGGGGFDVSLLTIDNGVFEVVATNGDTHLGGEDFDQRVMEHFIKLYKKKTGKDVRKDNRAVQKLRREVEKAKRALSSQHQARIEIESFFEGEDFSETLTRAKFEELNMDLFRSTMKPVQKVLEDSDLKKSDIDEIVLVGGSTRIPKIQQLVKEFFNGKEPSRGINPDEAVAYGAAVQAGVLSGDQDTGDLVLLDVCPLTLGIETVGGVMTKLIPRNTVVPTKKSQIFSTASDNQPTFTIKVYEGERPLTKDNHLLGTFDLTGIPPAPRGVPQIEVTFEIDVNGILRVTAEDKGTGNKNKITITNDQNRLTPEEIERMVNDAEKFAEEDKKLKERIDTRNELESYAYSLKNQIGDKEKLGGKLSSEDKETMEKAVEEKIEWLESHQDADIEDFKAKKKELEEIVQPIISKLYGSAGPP
T3 sequence (G3I8R9 1-641 T229G/V461F): as above
T4 sequence (G3I8R9 1-413 T229G): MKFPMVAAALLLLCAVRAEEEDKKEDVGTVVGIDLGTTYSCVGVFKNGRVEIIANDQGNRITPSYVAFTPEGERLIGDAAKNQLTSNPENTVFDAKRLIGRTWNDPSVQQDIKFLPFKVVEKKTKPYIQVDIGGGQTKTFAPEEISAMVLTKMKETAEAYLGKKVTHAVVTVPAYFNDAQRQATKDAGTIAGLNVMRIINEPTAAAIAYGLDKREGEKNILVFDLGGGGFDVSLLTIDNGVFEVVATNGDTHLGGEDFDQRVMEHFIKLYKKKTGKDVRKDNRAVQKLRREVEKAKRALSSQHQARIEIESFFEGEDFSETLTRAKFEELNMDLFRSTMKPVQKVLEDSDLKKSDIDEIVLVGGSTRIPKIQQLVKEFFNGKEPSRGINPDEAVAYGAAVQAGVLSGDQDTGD
T2 sequence (G3I8R9 1-641 T229G): as the sequence (G3I8R9 1-641 T229G/V461F) above, with F461V counted along it

Kd [1] [µM] | Kd [2] [µM] | Kd (AMPylated BiP* FL) [µM] | Kd (BiP* NBD(1-413)) [µM] | Kd (BiP* NBD(1-417)) [µM] | Compound
4.49 | 5.73 | 2.36 | 5.27 | 3.94 | Nc1ncnc2c1ncn2[C@@H]1O[C@H](COP(=O)(O)OP(=O)(O)O)[C@@H](O)[C@H]1O [ADP]
0.21 | – | 0.07 | – | – | Nc1ncnc2c1ncn2[C@@H]1O[C@H](COP(=O)(O)OP(=O)(O)OP(=O)(O)O)[C@@H](O)[C@H]1O [ATP]
